In article PMC8692993, “PPARα and PPARγ activation is associated with pleural mesothelioma invasion but therapeutic inhibition is ineffective” (iScience, 2021):
Where two headings read alike, the source gives them in different places.

Legend:
[1] = tested on: VGE62; assay: MTT cell metabolic activity assay, VGE62; format: cell-based, human; details: VGE62, arachidonic acid 5 and 10 μM, p <0.05
Description: (§1) Cells were harvested and seeded in 96-flat well plates (Corning) at a density of 5 x 10^4 cells/mL overnight. Media was removed and 100 μL media with GW6471 or GW9662 at indicated concentrations was added to each well. Cell viability and toxicity were measured at 48 h. Cells were incubated with 50 μL of a 2 mg/mL solution of (3-(4,5-dimethyl-thiazole-2-yl)-2,5-[…] tetrazolium (MTT, Sigma-Aldrich) in PBS for 4 h and then exposed to 100 μL dimethyl sulfoxide (DMSO; Sigma-Aldrich). Cell viability was measured by absorption at 570 nm in a microplate spectrophotometer (Spectromax 250 plate reader). Results are shown as relative cell viability.

[2] = tested on: AE17; assay: MTT cell metabolic activity assay, AE17; format: cell-based, mouse; details: AE17, arachidonic acid 5 and 10 μM, p <0.05
Description: as §1

[3] = tested on: AB1; assay: MTT cell metabolic activity assay, AB1; format: cell-based, mouse; details: AB1, arachidonic acid 5 and 10 μM, p <0.05
Description: as §1

[4] = tested on: HAP1, HAP1 PPARA KO, and HAP1 PPARG KO cell lines; assay: MTT cell metabolic activity assay, HAP1 lines; format: cell-based, human; details: arachidonic acid 5 and 10 μM, p <0.0001
Description: as §1

[5] = tested on: brain metastases from melanoma and breast cancer; set-up: method as in Zou et al., 2019; details: murine models; ref Zou et al., 2019; cited from earlier work
[6] = tested on: SC model of melanoma or a metastatic model of lung cancer; set-up: method as in Zou et al., 2019; details: ref Zou et al., 2019; cited from earlier work
[7] = target: T1, PPARγ (Homo sapiens, UniProt P37231); assay: HG5LN reporter cell assay, PPARγ-mediated transcription; format: cell-based; set-up: expressed in transfected cells; host or cells: HG5LN (HeLa-derived, GAL4RE-luciferase)
T1 sequence (P37231 238-503 limits assumed): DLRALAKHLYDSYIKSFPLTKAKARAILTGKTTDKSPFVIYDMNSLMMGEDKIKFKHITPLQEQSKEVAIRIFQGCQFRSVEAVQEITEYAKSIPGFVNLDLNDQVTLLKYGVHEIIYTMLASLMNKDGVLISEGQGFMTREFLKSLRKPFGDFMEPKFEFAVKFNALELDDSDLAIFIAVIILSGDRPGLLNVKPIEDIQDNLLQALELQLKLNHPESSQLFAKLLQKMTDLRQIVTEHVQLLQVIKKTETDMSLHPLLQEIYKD
Text: (§2) Nuclear receptors, including PPARα and γ, are ligand-inducible transcription factors that form heterodimers with retinoid X receptors and bind to specific DNA sites located in the enhancer/promoter region of target genes, releasing co-repressors and/or recruiting co-activators ([Wang, 2010]). We therefore assessed the functional consequences of the ligands on PPARα and γ-mediated transcriptional activation in reporter cell lines. These cell lines were generated as previously reported by a two-step transfection procedure ([Seimandi et al., 2005]). First, a stable cell line, HG5LN, expressing the reporter gene (GAL4RE-luciferase) was developed from the HeLa cell line. These cells were then transfected with a plasmid expressing the C-terminal ligand-binding domain of PPARα or γ fused to GAL4 DNA-binding domain. The parental HG5LN cells were used as a control to test non-specific modulation of luciferase expression by the small molecules investigated (Figure S4A). The HG5LN PPAR reporter cells therefore allow comparison of the functional activity at, and selectivity of different ligands for, PPARα and γ. […] As expected ([Abu Aboud et al., 2015]), GW6471 potently antagonized PPARα (Figure 4E and Table 1).
(§3) A transfected […] cell line HG5LN was used ([Balaguer et al., 2001]). These cells were cultured in Dubecco's modified Eagle's medium (DMEM-F12 Thermo Fisher Scientific) with phenol red and supplemented with 5% foetal calf serum, incubated at 37°C in a 5% CO2/95% air-humidified atmosphere. Luciferase assays were performed in DMEM-F12 (Thermo Fisher Scientific) without phenol red and supplemented with 5% dextran-coated charcoal-stripped FCS (test culture medium), puromycin (Thermo Fisher Scientific) 0.5 μg/mL and geneticin (Thermo Fisher Scientific) 1 mg/mL. Cells were seeded at a density of 5 x 10^4 cells/well and incubated for 8 h at 37°C in a 96-well plate white opaque tissue culture plates (Becton-Dickinson). Tested compounds were added in serial dilutions and incubated for 16 h at 37°C. After incubation, the medium containing the effectors was carefully removed and replaced by culture medium containing 3 x 10^−4 mol/L luciferin (Sigma Chemicals). After 5 min incubation at room temperature, the 96-well plate was then read with a Microbeta Wallac luminometer and the luminescence was measured in the living cells for 2 s. All experiments were performed in quadruplicate.

[8] = target: T2, PPARα (Homo sapiens, UniProt Q07869); set-up: method as in Leesnitzer et al., 2002; details: displacement of [3H]GW2331, incubation time 1 h, ref Leesnitzer et al., 2002, read-out: Lit. Binding assay, IC50; cited from earlier work
T2 sequence (Q07869 239-466 limits assumed): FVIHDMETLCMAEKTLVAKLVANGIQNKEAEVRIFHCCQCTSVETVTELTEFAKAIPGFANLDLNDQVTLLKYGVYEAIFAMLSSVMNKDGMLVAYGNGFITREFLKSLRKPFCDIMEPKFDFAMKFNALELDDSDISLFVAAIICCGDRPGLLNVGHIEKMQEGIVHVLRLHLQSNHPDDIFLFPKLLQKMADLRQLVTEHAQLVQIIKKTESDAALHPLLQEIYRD

[9] = target: T2, PPARα; set-up: expressed in transfected cells; host or cells: HG5LN (HeLa-derived, GAL4RE-luciferase); method as in Seimandi et al., 2005; details: ref Seimandi et al., 2005, cited from earlier work
[10] = target: T2, PPARα; assay: HG5LN reporter cell assay, PPARα-mediated transcription; format: cell-based; set-up: expressed in transfected cells; host or cells: HG5LN (HeLa-derived, GAL4RE-luciferase)
Text: as §2, §3

[11] = target: T1, PPARγ; assay: LanthaScreen TR-FRET binding assay, PPARγ; details: 2 h incubation, mean of 3 replicates ± SEM
Description: (§4) The LanthaScreen™ TR-FRET binding assay was performed following the manufacturer's guidelines (PV4894, Invitrogen) as follows, 20 mM stock solution of the ligand or control in DMSO were serially diluted using 100% DMSO to produce a range of concentrations from 100 μM to 1 pM. The test compound solutions were mixed with the reaction buffer in a 1 (ligand) in 10 (reaction buffer) dilution for a final 2X ligand concentration. This was mixed with the reaction components (glutathione S-transferase (GST)-PPPARγLBD (0.5 nM)/, terbium (Tb)-labelled anti-GST antibody (5 nM) and Fluormone pan-PPAR green (5 nM for PPARγ; 20 nM for PPARα) at room temperature in a ratio of 8 μLl 2X ligand solution: 4 μLl of 4XFluormone: and 4 μLl 4X GST-PPPARγLBD/terbium (Tb)-labelled anti-GST antibody to produce a final reaction mixture volume of 16 μL. The concentration of DMSO in the final reaction mixture was 5%. The reaction mixture was kept at room temperature for 2 h prior to recording the TR-FRET emission spectra using a CLARIOstar Plus microplate reader (BMG Labtech). […] Results are expressed as the ratio of fluorescence intensity at 520 nm (Fluormone emission) and 490 nm (Tb emission). […] For each compound three serial dilutions were prepared and measured separately. The IC50 and SEM values were determined using a sigmoidal dose-response equation with varying slope using GraphPad Prism.

[12] = target: T2, PPARα; assay: LanthaScreen TR-FRET binding assay, PPARα; details: 2 h incubation, mean of 3 replicates ± SEM
Description: as §4

[13] = target: T1, PPARγ; set-up: method as in Leesnitzer et al., 2002; details: displacement of [3H]rosiglitazone, incubation time 1 h, ref Leesnitzer et al., 2002, read-out: Lit. Binding assay, IC50; cited from earlier work
[14] = target: T1, PPARγ; set-up: expressed in transfected cells; host or cells: HG5LN (HeLa-derived, GAL4RE-luciferase); method as in Seimandi et al., 2005; details: inhibition of agonism by 20 nM rosiglitazone (BRL49653), ref Seimandi et al., 2005, read-out: Functionality, Lit. IC50; cited from earlier work

For `CCCCC/C=C\C/C=C\C/C=C\C/C=C\CCCC(=O)O` [arachidonic acid], the “Proliferation (MTT)” value [1] was “increased proliferation in a concentration-dependent manner”, the “Proliferation (MTT)” value [2] was “increased proliferation in a concentration-dependent manner” and the “Proliferation (MTT)” value [3] was “increased proliferation in a concentration-dependent manner”. The “Proliferation (MTT) in HAP1 parental versus PPARA/PPARG KO cells” value [4] was “significant increase in proliferation, but only in the HAP1 parental cell line”.
In the case of `O=C(Nc1ccncc1)c1cc([N+](=O)[O-])ccc1Cl` [T0070907], the Brain metastases [5] is given as “significant decrease of brain metastases from melanoma and breast cancer” and the Tumor growth [6] is given as “did not find an inhibitory effect on tumor growth”.
For `O=C(Nc1ccccc1)c1cc([N+](=O)[O-])ccc1Cl` [GW9662], the “Functionality, Type” value [7] is listed as “antagonist”, the IC50 ([7]; inhibition of agonism by 30 nM rosiglitazone, 16 h incubation, mean of 3 experiments ± SEM) is listed as 4 ± 2.6 nM and the IC50 [8] is listed as 39 ± 4 nM. The EC50 ([9]; PPARα partial agonism, read-out: Functionality, Lit. EC50) was 26 ± 9 nM, the IC50 ([9]; PPARα, inhibition of agonism by 30 nM GW7647, read-out: Functionality, Lit. IC50) was 188 ± 43 nM and the “Maximal activity reached (partial agonism)” value ([9]; PPARα) was “j 33% of maximal activity ([Seimandi et al., 2005])”. The “Functionality, Type” value [10] was “partial agonist”, the IC50 ([10]; inhibition of agonism by 10 nM GW7647, 16 h incubation, mean of 3 experiments ± SEM) was 131 ± 31 nM and the IC50 [11] was 12.4 ± 3.6 nM. The IC50 [12] was 214 ± 64.6 nM, the IC50 [13] was 5.4 ± 0.6 nM and the IC50 [14] was 3.8 ± 1.3 nM.
